The record followed here is ChEMBL document CHEMBL5131391, “One-pot three-component synthesis of novel pyrazolo[3,4-b]pyridines as potent antileukemic agents” (Eur J Med Chem, 2022).

Experiment [1] relates to MV4-11. Description: Antiproliferative activity against human MV4-11 cells assessed as reduction in cell viability incubated for 72 hrs by resazurin dye based assay. As to conditions: MV4-11, 72 h. The class given is functional.
In experiment [2] the test system is CCRF-CEM. Description: Antiproliferative activity against human CEM cells assessed as reduction in cell viability incubated for 72 hrs by resazurin dye based assay. In kind it is functional. On the technique in general: Resazurin is reduced to fluorescent resorufin, in cell work by metabolically active cells.
In experiment [3] the test system is K562. The experiment in a line: Antiproliferative activity against human K562 cells assessed as reduction in cell viability incubated for 72 hrs by resazurin dye based assay. The class given is functional. As to conditions: K562, 72 h.
Experiment [4] relates to RS4-11. Description: Downregulation of MEIS1 protein expression in human RS4-11 cells at 5 to 20 uM measured after 24 hrs by Western blot analysis. In kind it is functional, cell-based. As to conditions: dose 5-20 µM.
In experiment [5] the test system is RS4-11. The experiment in a line: Antiproliferative activity against human RS4-11 cells assessed as reduction in cell viability incubated for 72 hrs by resazurin dye based assay. The class given is functional. As to conditions: RS4-11, 72 h.
In experiment [6] the test system is RS4-11. Description: Downregulation of HOXA9 protein expression in human RS4-11 cells at 5 to 20 uM measured after 24 hrs by Western blot analysis. The class given is functional, cell-based. As to conditions: dose 5-20 µM. (In general: In western blotting, separated proteins are transferred to a membrane and probed.)
The subject of experiment [7] is RS4-11. Description: Induction of cell cycle arrest in human RS4-11 cells assessed as accumulation of cells in subG1 phase at 1.25 to 10 uM measured after 72 hrs by PI staining based flow cytometry analysis. The class given is functional. The following applies: dose 1.25-10 µM.
For experiment [8], the system named is KOPN-8. Description: Antiproliferative activity against human KOPN-8 cells assessed as reduction in cell viability incubated for 72 hrs by resazurin dye based assay. The class given is functional. The following applies: KOPN-8, 72 h.
Experiment [9] concerns ML-2. The experiment in a line: Antiproliferative activity against human ML-2 cells assessed as reduction in cell viability incubated for 72 hrs by resazurin dye based assay. The following applies: ML-2, 72 h. The class given is functional.
For experiment [10], the system named is RS4-11. The experiment in a line: Induction of cell cycle arrest in human RS4-11 cells assessed as accumulation of cells in G2/M phase at 1.25 to 10 uM measured after 72 hrs by PI staining based flow cytometry analysis. In kind it is functional. As to conditions: dose 1.25-10 µM. (In general: Flow cytometry measures light scatter and fluorescence of single cells or particles in a stream.)

Experiment [11] has as its system RS4-11. The experiment in a line: Induction of cell cycle arrest in human RS4-11 cells assessed as accumulation of cells in G2/M phase measured after 48 hrs by PI staining based flow cytometry analysis. In kind it is functional. The following applies: dose 1.25-10 µM, DDE = dose-dependent effect.

Calls of active or inactive are those of the source. No cut-off for these calls is given here.

A word on the IC50: it is the concentration that inhibits the measured activity by half. Consider `N#Cc1c(-c2cccs2)nc2c(c(-c3ccccc3)nn2-c2ccccc2)c1-c1ccc(O)cc1`, for which the values for the IC50 in experiment [1], in [2] and in experiment [3] were 34.2 µM, over 25 µM and 11.6 µM, respectively.

For the molecule `Cc1ccc(-c2nc3c(c(-c4ccccc4)nn3-c3ccccc3)c(-c3ccc4c(c3)OCO4)c2C#N)cc1`, the IC50 in experiment [1] was 5.1 µM; in experiment [5] it was 4.6 µM; in experiment [2], 23.9 µM; in experiment [8], 0.7 µM; in [3], 2 µM; in experiment [9], 7.7 µM. Further, the outcome in experiment [4], in experiment [6], in experiment [7] and in experiment [10] was Active.

With `N#Cc1c(-c2ccccc2)nc2c(c(-c3ccccc3)nn2-c2ccccc2)c1-c1ccc2c(c1)OCO2`, the IC50 in experiment [1] is over 25 µM; in [5] it was over 25 µM; in experiment [2], over 25 µM; in experiment [8], over 25 µM; in experiment [3] it was 5.9 µM; in [9], over 25 µM.

For `COc1ccc(-c2c(C#N)c(-c3ccccc3)nc3c2c(-c2ccccc2)nn3-c2ccccc2)cc1OC`, the 50% inhibitory concentration (IC50) in experiment [1], in experiment [2] and in [3] was over 25 µM in each case.

On to `N#Cc1c(-c2ccc(F)cc2)nc2c(c(-c3ccccc3)nn2-c2ccccc2)c1-c1ccc(O)cc1`, for which the IC50 is 11.6 µM in [1]; 9.9 µM in [5]; over 25 µM in experiment [2]; 1.3 µM in [8]; 10.2 µM in experiment [3]; 6.7 µM in [9]. The outcome in experiment [4], in [6], in experiment [7] and in experiment [10] was Active.

Regarding `COc1cc(-c2c(C#N)c(-c3cccs3)nc3c2c(-c2ccccc2)nn3-c2ccccc2)ccc1O`, the values for the IC50 in experiment [1], in experiment [2] and in experiment [3] were 44.2 µM, 37.3 µM and 15.4 µM, respectively.

`COc1ccc(-c2nc3c(c(-c4ccccc4)nn3-c3ccccc3)c(-c3ccc(O)cc3)c2C#N)cc1`: the IC50 amounted to 1.6 µM in experiment [1]; 1 µM in experiment [5]; 6.7 µM in experiment [2]; 0.2 µM in [8]; 2.1 µM in [3]; 0.4 µM in experiment [9]. The result in experiment [4], in [6], in experiment [7] and in experiment [10] was Active. Also, in experiment [11], the Activity entry was “Dde”.
